How the values were obtained:
[1] = target: Cyclin-dependent kinase 5/CDK5 activator 1 (Homo sapiens) (UniProt Q00535+Q15078); test: Inhibition of human CDK5/p25 using RB Protein as substrate at 1 uM in presence of 32P-ATP by Hotspot assay relative to control; values are per cent of control
[2] = target: T1, Serine/threonine-protein kinase 4 (Homo sapiens) (UniProt Q13043); test: Inhibition of human MST1/STK4 using KKSRGDYMTMQIG as substrate at 1 uM in presence of 32P-ATP by Hotspot assay relative to control; values are per cent of control
T1 sequence (whole entry): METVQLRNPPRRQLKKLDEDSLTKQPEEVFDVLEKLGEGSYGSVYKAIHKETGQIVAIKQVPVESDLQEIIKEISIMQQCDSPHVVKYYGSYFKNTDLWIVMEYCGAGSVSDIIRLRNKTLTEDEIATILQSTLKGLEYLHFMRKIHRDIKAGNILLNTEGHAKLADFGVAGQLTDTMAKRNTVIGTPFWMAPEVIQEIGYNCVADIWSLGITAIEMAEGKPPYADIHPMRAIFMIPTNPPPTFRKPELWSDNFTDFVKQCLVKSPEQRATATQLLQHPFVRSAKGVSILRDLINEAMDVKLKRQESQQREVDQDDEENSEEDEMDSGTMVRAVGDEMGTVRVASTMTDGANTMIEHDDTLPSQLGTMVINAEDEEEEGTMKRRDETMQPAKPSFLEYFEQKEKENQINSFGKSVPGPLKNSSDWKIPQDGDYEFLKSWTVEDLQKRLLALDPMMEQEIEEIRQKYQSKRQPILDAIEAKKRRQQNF

[3] = target: Serine/threonine-protein kinase 16 (Homo sapiens) (UniProt O75716); test: Inhibition of human STK16 using myelin basic protein as substrate at 1 uM in presence of 32P-ATP by Hotspot assay relative to control; values are per cent of control
Sequence of Serine/threonine-protein kinase 16 (Homo sapiens) (O75716 whole entry): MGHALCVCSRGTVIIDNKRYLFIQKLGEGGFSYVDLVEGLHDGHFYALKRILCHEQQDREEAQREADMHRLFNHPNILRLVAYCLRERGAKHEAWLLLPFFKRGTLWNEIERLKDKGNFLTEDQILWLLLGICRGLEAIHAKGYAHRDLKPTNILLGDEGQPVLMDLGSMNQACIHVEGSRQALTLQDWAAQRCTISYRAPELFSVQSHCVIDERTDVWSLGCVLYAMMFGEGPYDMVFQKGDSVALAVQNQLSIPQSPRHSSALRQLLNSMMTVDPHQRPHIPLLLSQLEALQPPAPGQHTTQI

[4] = target: T2, MAP/microtubule affinity-regulating kinase 4 (Homo sapiens) (UniProt Q96L34); test: Inhibition of human MARK4 using KKKVSRSGLYRSPSMPENLNRPR as substrate at 1 uM in presence of 32P-ATP by Hotspot assay relative to control; values are per cent of control
T2 sequence (whole entry): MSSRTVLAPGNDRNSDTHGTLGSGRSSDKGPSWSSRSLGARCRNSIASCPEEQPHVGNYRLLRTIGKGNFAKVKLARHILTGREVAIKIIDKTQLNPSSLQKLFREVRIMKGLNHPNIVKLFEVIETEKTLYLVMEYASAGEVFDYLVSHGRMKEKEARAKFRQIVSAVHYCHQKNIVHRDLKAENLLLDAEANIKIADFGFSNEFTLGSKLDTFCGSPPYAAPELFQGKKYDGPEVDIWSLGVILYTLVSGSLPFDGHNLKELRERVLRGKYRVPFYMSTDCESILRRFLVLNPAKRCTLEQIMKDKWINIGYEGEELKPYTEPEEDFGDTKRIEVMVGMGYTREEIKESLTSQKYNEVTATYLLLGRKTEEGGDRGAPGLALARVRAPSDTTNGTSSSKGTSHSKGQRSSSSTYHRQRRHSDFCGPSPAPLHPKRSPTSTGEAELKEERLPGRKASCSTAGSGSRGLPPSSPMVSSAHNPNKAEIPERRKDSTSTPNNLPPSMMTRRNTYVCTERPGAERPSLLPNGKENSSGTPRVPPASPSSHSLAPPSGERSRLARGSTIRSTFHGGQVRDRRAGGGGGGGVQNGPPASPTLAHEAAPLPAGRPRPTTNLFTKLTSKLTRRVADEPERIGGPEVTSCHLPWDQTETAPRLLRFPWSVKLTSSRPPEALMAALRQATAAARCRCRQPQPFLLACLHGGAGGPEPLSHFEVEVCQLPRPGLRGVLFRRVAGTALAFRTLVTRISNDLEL

[5] = target: BDNF/NT-3 growth factors receptor (Homo sapiens) (UniProt Q16620); test: Residual activity of human TRKB using poly[Glu:Tyr] (4:1) as substrate at 1 uM in presence of 32P-ATP by Hotspot assay relative to control
Sequence of BDNF/NT-3 growth factors receptor (Homo sapiens) (Q16620 32-822 limits assumed): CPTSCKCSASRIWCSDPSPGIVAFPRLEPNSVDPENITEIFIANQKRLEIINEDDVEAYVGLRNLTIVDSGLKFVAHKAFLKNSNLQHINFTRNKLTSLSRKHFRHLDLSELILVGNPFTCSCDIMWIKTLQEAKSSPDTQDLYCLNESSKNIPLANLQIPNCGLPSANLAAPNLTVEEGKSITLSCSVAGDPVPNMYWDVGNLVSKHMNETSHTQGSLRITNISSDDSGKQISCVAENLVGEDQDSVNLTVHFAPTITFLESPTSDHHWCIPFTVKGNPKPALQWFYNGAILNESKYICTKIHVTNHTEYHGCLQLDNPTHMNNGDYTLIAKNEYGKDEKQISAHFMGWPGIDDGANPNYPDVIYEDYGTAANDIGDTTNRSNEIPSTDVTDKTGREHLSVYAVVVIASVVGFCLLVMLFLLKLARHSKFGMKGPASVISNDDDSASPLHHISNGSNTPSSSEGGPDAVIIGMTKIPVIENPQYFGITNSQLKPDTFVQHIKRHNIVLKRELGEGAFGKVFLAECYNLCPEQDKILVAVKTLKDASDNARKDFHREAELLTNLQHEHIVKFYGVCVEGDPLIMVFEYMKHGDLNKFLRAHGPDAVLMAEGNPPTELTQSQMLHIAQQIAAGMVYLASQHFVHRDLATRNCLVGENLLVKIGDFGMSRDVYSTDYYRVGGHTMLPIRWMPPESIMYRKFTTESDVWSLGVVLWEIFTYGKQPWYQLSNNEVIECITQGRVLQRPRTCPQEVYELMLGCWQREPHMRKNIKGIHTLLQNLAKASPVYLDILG

[6] = target: Casein kinase I isoform alpha (Homo sapiens) (UniProt P48729); test: Inhibition of human CK1a1 using KRRRAL[pS]VASLPGL as substrate at 1 uM in presence of 32P-ATP by Hotspot assay relative to control; values are per cent of control
Sequence of Casein kinase I isoform alpha (Homo sapiens) (P48729 2-337 limits assumed): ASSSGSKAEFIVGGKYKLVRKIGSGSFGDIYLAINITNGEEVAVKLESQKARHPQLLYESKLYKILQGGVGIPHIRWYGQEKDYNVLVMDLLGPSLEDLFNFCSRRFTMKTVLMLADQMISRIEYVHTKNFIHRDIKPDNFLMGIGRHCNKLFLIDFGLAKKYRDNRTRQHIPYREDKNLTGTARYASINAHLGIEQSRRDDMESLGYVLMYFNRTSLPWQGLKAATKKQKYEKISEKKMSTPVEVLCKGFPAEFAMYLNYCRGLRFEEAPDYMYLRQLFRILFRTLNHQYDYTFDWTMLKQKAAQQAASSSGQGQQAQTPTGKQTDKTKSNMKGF

[7] = target: CDK6/cyclin D1 (Homo sapiens) (UniProt P24385+Q00534); test: Inhibition of human CDK6/cyclin D1 using RB Protein as substrate at 1 uM in presence of 32P-ATP by Hotspot assay relative to control; values are per cent of control
[8] = target: RAC-gamma serine/threonine-protein kinase (Homo sapiens) (UniProt Q9Y243); test: Inhibition of human AKT3 using KGSGSGRPRTSSFAEG as substrate at 1 uM in presence of 32P-ATP by Hotspot assay relative to control; values are per cent of control
Sequence of RAC-gamma serine/threonine-protein kinase (Homo sapiens) (Q9Y243 whole entry): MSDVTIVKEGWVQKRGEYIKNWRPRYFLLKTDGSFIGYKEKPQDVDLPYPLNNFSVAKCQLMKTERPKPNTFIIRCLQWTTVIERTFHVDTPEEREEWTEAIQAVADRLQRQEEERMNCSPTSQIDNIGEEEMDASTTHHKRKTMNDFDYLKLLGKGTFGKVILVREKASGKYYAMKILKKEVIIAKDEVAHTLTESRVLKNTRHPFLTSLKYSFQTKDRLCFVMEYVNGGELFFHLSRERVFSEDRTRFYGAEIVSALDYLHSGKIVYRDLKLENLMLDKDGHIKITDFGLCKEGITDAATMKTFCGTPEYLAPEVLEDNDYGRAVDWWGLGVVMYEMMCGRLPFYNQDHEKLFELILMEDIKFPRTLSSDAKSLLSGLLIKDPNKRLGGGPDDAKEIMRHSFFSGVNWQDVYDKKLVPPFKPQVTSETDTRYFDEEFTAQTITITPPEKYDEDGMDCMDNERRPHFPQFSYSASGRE

[9] = target: T3, Dual specificity tyrosine-phosphorylation-regulated kinase 2 (Homo sapiens) (UniProt Q92630); test: Inhibition of human DYRK2 using RRRFRPASPLRGPPK as substrate at 1 uM in presence of 32P-ATP by Hotspot assay relative to control; values are per cent of control
T3 sequence (whole entry): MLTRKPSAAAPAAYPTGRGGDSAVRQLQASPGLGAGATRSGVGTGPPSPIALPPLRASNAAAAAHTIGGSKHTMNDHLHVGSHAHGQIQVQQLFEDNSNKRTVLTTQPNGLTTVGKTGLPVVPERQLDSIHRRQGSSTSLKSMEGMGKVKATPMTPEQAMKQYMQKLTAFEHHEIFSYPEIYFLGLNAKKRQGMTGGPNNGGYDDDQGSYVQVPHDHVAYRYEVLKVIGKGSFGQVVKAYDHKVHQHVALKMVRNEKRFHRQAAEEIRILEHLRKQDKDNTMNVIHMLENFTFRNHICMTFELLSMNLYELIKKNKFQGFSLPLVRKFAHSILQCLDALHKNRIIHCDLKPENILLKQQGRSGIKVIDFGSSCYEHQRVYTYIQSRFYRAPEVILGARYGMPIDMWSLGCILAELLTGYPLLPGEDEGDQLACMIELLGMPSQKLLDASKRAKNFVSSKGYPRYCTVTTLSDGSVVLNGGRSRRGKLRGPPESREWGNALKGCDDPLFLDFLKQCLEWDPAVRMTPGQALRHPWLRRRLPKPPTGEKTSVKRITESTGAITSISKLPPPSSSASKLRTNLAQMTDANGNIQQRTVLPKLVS

Sequence of Cyclin-dependent kinase 5/CDK5 activator 1 (Homo sapiens) (Q00535 whole entry): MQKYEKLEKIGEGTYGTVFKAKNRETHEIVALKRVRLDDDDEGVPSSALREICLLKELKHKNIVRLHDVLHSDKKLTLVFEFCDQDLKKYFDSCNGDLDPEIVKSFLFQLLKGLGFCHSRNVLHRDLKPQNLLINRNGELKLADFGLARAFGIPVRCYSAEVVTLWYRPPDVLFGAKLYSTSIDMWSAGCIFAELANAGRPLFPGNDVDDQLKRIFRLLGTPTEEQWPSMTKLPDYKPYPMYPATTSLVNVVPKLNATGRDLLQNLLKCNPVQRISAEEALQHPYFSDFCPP
Sequence of Cyclin-dependent kinase 5/CDK5 activator 1 (Homo sapiens) (Q15078 99-307 partner limits assumed): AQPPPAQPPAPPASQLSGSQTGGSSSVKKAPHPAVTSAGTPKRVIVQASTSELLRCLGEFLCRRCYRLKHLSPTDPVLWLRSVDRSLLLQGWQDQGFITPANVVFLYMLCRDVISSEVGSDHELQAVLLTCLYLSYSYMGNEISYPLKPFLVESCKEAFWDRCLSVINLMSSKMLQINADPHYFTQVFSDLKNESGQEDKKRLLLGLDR

Row | SMILES | residual activity [1] [%] | residual activity [2] [%] | residual activity [3] [%] | residual activity [4] [%] | residual activity [5] [%] | residual activity [6] [%] | residual activity [7] [%] | residual activity [8] [%] | residual activity [9] [%]
1 | Cc1cc(-c2cnc(N)c3c(-c4ccc5scnc5c4)csc23)n(C)n1 | 96.7 | 96.9 | 97.6 | 86 | 106 | 88.4 | 98.2 | 96.1 | 78.5
2 | CC(C)S(=O)(=O)c1ccc2nccc(Nc3ccc4scnc4c3)c2c1 | 99.9 | 98.5 | 98.8 | 99.9 | 86.7 | 105 | 101 | 94.3 | 101
3 | CNC(=O)c1ccc2c(c1)ncn2-c1ccc(CC(=O)OC(C)(C)C)cc1 | 93.1 | 95.3 | 85.4 | 93.1 | 97.8 | 98.5 | 96.6 | 98.4 | 96.1
